pIC50: −log10 of the molar value.
Target: T1, Aquaporin-1 (Homo sapiens, UniProt P29972)
T1 sequence (P29972 whole entry): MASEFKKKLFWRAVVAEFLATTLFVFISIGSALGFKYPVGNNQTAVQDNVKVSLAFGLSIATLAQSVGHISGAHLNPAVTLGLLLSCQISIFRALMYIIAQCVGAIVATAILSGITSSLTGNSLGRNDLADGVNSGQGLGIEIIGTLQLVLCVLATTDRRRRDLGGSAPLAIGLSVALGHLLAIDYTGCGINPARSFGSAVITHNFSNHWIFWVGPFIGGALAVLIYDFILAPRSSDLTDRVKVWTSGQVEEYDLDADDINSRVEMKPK
Assay: Stopped-flow Assay
Method: Osmotic water permeability was measured at 22-24 °C bymonitoring 90° scattered light intensity at 520 nm wavelength. Measurements were made using a PiStar 180 (Applied Photophysics, UK), with a dead time of 1-2 milliseconds. Thirty minutes prior to the assay, stripped red blood cell ghosts or proteoliposomes containing purified AQP1 and stored in ice were treated with mercuric chloride (50-100 µM; positive control for inhibition) or with the various compounds usually at a concentration of 150 µM. Stock solutions of compounds were in 100% ethanol (for stripped erythrocyte membrane experiments) and in 100% DMSO (for proteoliposome experiments). An inwardly directed osmotic gradient (hyperosmotic shock) was created by mixing the vesicles maintained in Buffer A (50 mM sodium phosphate buffer pH, 100 mM NaCl, 1 mM EDTA, 0.025% sodium azide) with an equal volume of 200 mM mannitol. On the other hand, vesicles preincubated with 200 mM mannitol were mixed with Buffer A to create an outwardly

SMILES | pIC50
Nc1nc(NC[C@H]2CC[C@H](CNS(=O)(=O)c3ccc4ccccc4c3)CC2)nc2ccccc12 | 5.41
NCC1Cc2cc(F)cc(-c3ccc(Cl)cc3Cl)c2O1 (stereo unspecified) [[7-(2,4-dichlorophenyl)-5-fluoro-2,3-dihydro-1-benzofuran-2-yl]methanamine (Compound 5)] | 4.82
CNCC1Cc2cc(F)cc(-c3ccc(Cl)cc3Cl)c2O1 (stereo unspecified) [{[7-(2,4-dichlorophenyl)-5-fluoro-2,3-dihydro-1-benzofuran-2-yl]methyl}(methyl)amine (Compound 4)] | 5.01
CNCC1Cc2cc(F)cc(-c3c(Cl)cccc3Cl)c2O1 (stereo unspecified) [{[7-(2,6-dichlorophenyl)-5-fluoro-2,3-dihydro-1-benzofuran-2-yl]methyl}(methyl)amine (Compound 6)] | 4.53

The remaining lines, values ahead:

pIC50 | SMILES
5.24 | Nc1nc(NC[C@H]2CC[C@H](CNS(=O)(=O)c3cccc4c(Cl)cccc34)CC2)nc2ccccc12 [5-chloro-N-{[(1r,4r)-4-{[(4-aminoquinazolin-2-yl)amino]methyl}cyclohexyl]methyl}naphthalene-1-sulfonamide (Compound 3)]
5.57 | Nc1nc(NC[C@H]2CC[C@H](CNS(=O)(=O)c3cccc4ccccc34)CC2)nc2ccccc12 [CGP 71683]

— BindingDB's records for doi:10.1111/cbdd.12713 (Novartis Institutes of Biomedical Research Institute, 2016)
